Structures can show the parent of a compound that is named as a salt.
Experiments:
Assay type in all cases: physicochemical
[1] = Hygroscopicity on storage at controlled temperature/relative humidity (Table 2)
From the text: Crystalline mesylate salt was isolated and characterised using some or all of XRPD, ^1H NMR, DSC, TGA, GVS, IC, PLM, HSM, HPLC and KF (see Table 2).

[2] = Hygroscopicity during long term storage, assessed by Karl Fischer titration; conditions: double LDPE liners, desiccant pouch, heat-sealed foil bag, HDPE keg
Protocol: The water content of each sample was measured on a Mettler Toledo DL39 Coulometer using Hydranal Coulomat AG reagent and an argon purge. Weighed solid samples were introduced into the vessel on a platinum TGA pan which was connected to a subaseal to avoid water ingress. Approx 10 mg of sample was used per titration and duplicate determinations were made.
(§1) Crystalline (3S)-Tetrahydrofuran-3-yl (4S)-4-isopropyl-1,4,6,7-tetrahydro-5H-imidazo[4,5-c]pyridine-5-carboxylate mesylate was also assessed for stability and hygroscopicity when dispensed in 3 g aliquots in double LDPE liners, sealed with cable tie and placed, with a desiccant pouch into a foil bag, which was subsequently heat-sealed. The foil bag was then placed into an HDPE keg fitted with an HDPE lid. These conditions mirror typical GMP level storage conditions. Stability was assessed by HPLC and hygroscopicity was assessed by Karl Fisher (KF) titration.

[3] = Stability during long term storage, assessed by HPLC; conditions: double LDPE liners, desiccant pouch, heat-sealed foil bag, HDPE keg
Protocol: Purity analysis was performed on an Agilent HP1100 series system equipped with a diode array detector and using ChemStation software vB.02.01-SR1 using the method detailed below (Table 1).
as §1

[4] = after 6 months at 40° C./75% RH

| Hygroscopicity (time after which the sample deliquesced) ([1]; 40° C./75% RH) [days] | Stability of the crystalline salt on storage (reduced hygroscopicity) ([1]; temperature of 40° C., relative humidity of 75%) | Water uptake (KF) [2, 4] [%] | Water uptake (KF) ([2]; over 3 years at 25° C./60% RH) | Degradation (HPLC) [3, 4] [%] | Degradation (HPLC) ([3]; over 3 years at 25° C./60% RH) [%] | Hygroscopicity (time in which the sample deliquesced) ([1]; 25° C./60% RH) [° C./60% RH in <24 h] | Structure (SMILES) |
| --- | --- | --- | --- | --- | --- | --- | --- |
| 3 | up to three days | 0.1 | no water uptake | 0.1 | 0.1 |  | CC(C)[C@H]1c2[nH]cnc2CCN1C(=O)O[C@H]1CCOC1 [Crystalline mesylate salt, (3S)-Tetrahydrofuran-3-yl (4S)-4-isopropyl-1,4,6,7-tetrahydro-5H-imidazo[4,5-c]pyridine-5-carboxylate, Methananesulfonic Acid Salt] |
|  |  |  |  |  |  | 25 | CC(C)[C@H]1c2[nH]cnc2CCN1C(=O)O[C@H]1CCOC1 [Free base, (3S)-Tetrahydrofuran-3-yl (4S)-4-isopropyl-1,4,6,7-tetrahydro-5H-imidazo[4,5-c]pyridine-5-carboxylate] |

Reference: US10369139B2, “Crystalline compound as semicarbazide-sensitive amine oxidase (SSAO) enzyme inhibitor” (BENEVOLENTAI CAMBRIDGE LIMITED, priority 2015, dated 2019)
